≈ marks a conversion by molar mass, not a printed value.

Common to all, as to format: cell-based
In experiment [1] the test system is S. aureus RN4220 (pYH4-MRS). As to the kind of experiment: Mode of action: MIC with MRS over-production.
Procedure: The strain expresses high levels of MRS upon the addition of 0.01 μg/mL of anyhdrotetracycline.
Experiment [2] concerns S. aureus, coagulase-negative staphylococci and S. pyogenes strains. In words: Serial passage, whole panel of 19 isolates. To be noted: after 20 passages; observed with five of the 19 organisms tested. On the procedure:
MRSi compound 5 (acetate salt), mupirocin and MRSi compound 5/mupirocin 1:1 combination were tested for development of resistance following serial passage using 19 isolates, including S. aureus, coagulase-negative staphylococci and S. pyogenes strains.

Experiment [3] relates to E. faecalis. In words: MIC against E. faecalis. The conditions noted are these: Enterococcus faecalis, Table 8.
Experiment [4] relates to E. faecium. In words: MIC against E. faecium. The conditions noted are these: Enterococcus faecium, ATCC33667. As to the method:
MRSi compound 5 alone and in combination with mupirocin was tested recent clinical isolates of E. faecalis (n=28) and E. faecium (n=23). Both the acetate salt and mupirocinate salts of MRSi compound 5 maintained potent activity against vancomycin-susceptible and—resistant enterococci (Tables 8, 9, and 10).

Setting [5] is: S. aureus RN4220 (pYH4-MRS), +aTC (MRS over-expression).

For the molecule `C=C(F)c1sc(CNCCCNc2cc(=O)c3ccccc3[nH]2)c(C)c1Br` [MRSi Cmpd 5, N-(4-bromo-5-(1-fluorovinyl)-3-methylthiophen-2-ylmethyl)-N′-(1H-quinolin-4-one)propane-1,3-diamine], the “increase in MIC on over-expression of MRS” value in experiment [1] (+aTC vs −aTC, 0.01 μg/mL anhydrotetracycline) stood at 8 fold. In addition, the MIC (usually the smallest concentration in the dilution series that meets the test's criterion for growth inhibition) in experiment [1] (setting [5]) was 1 µg/mL (≈ 2.22 µM); in experiment [1] (S. aureus RN4220 (pYH4-MRS), −aTC (no anhydrotetracycline)) it was 0.12 µg/mL (≈ 0.266 µM). In addition, the “MICs of the most resistant isolates that could be selected” value in experiment [2] stood at 16 µg/mL.
Consider `CN[C@H](CC(C)C)C(=O)N[C@H]1C(=O)N[C@@H](CC(N)=O)C(=O)N[C@H]2C(=O)N[C@H]3C(=O)N[C@H](C(=O)N[C@H](C(=O)O)c4cc(O)cc(O)c4-c4cc3ccc4O)[C@H](O)c3ccc(c(Cl)c3)Oc3cc2cc(c3O[C@@H]2O[C@H](CO)[C@@H](O)[C@H](O)[C@H]2O[C@H]2C[C@](C)(N)[C@H](O)[C@H](C)O2)Oc2ccc(cc2Cl)[C@H]1O` [Vancomycin, reference compound], for which the MIC in experiment [3] (ATCC 51299 / VRE, E. faecalis ATCC 51299 (VRE)) is 4 µg/mL; in experiment [3] (E. faecalis 1) it was 0.12 µg/mL; in experiment [3] (E. faecalis 7) it was 0.5 µg/mL; in experiment [4] it was 0.5 µg/mL; in experiment [1] (setting [5]), 0.5 µg/mL (≈ 0.345 µM); in experiment [1] (Staphylococcus aureus), 0.5 µg/mL (≈ 0.345 µM).

(Values after patent publication US20040224981A1, “Antibacterial methods and compositions” (priority 2003, published 2004).)
